Results from patent US4022895A, “Substituted phenylglycylcephalosporins” (SmithKline Corporation, priority 1975, dated 1977).
Values after ≈ are worked out from the molar mass of the structure shown. Read-outs that look alike come from different tables or passages of the source.

Key:
[1] = test system: E.coli SK 12140; test: In vitro antibacterial activity (MIC); assay type: cell-based; details: Escherichia coli, SK12140
Experimental: (§1) The compounds of this invention have antibacterial activity against Gram-positive and Gram-negative organisms. Minimum inhibitory concentrations (MIC's) ranged from 0.4 to >200 μg/ml in in vitro testing.

[2] = test system: Shig. paradys HH 112; test: In vitro antibacterial activity (MIC); assay type: cell-based
Experimental: as §1

[3] = test system: S.aureus SK 23390; test: In vitro antibacterial activity (MIC); assay type: cell-based; details: Staphylococcus aureus, SK23390
Experimental: as §1

[4] = test system: Strep. faecalis HH 34358; test: In vitro antibacterial activity (MIC); assay type: cell-based; details: Enterococcus faecalis, HH34358; Strep. faecalis HH 34358, in vitro
Experimental: as §1

[5] = test system: Entero. aerog. ATCC 13048; test: In vitro antibacterial activity (MIC); assay type: cell-based; details: Entero. aerog. ATCC 13048, in vitro; read-out: MIC
Experimental: as §1

[6] = test system: Kleb. pneumo. SK 1200; test: In vitro antibacterial activity (MIC); assay type: cell-based
Experimental: as §1

[7] = test system: E. coli HH 33779; test: In vitro antibacterial activity (MIC); assay type: cell-based; details: Escherichia coli, HH33779; E. coli HH 33779, in vitro; read-out: MIC
Experimental: as §1

[8] = test system: Sal. paratyphl ATCC 12176; test: In vitro antibacterial activity (MIC); assay type: cell-based
Experimental: as §1

[9] = test system: S.aureus HH 127; test: In vitro antibacterial activity (MIC); assay type: cell-based; details: Staphylococcus aureus, HH127; S.aureus HH 127, in vitro; read-out: MIC
Experimental: as §1

[10] = test system: S.aureus Villaluz; test: In vitro antibacterial activity (MIC); assay type: cell-based; details: Staphylococcus aureus
Experimental: as §1

[11] = test system: Kleb. pneumo. SK 4200; test: In vitro antibacterial activity (MIC); assay type: cell-based; details: Kleb. pneumo. SK 4200, in vitro; read-out: MIC
Experimental: as §1

[12] = test system: Klebs.pneumo. 4200; test: In vivo activity (ED50) against Klebs.pneumo. 4200
[13] = test system: E.coli 12140; test: In vivo activity (ED50) against E.coli 12140
[14] = test system: Proteus morgani 179; test: In vitro antibacterial activity (MIC); assay type: cell-based; details: Proteus morgani 179, in vitro; read-out: MIC
Experimental: as §1

[15] = Shig. paradys HH 112, in vitro, read-out: MIC
[16] = S.aureus SK 23390, in vitro, read-out: MIC
[17] = po, Klebs.pneumo. 4200, p.o., read-out: ED50
[18] = Escherichia coli, 12140, sc, E.coli 12140, s.c.
[19] = E.coli SK 12140, in vitro, read-out: MIC
[20] = Kleb. pneumo. SK 1200, in vitro, read-out: MIC
[21] = sc, Klebs.pneumo. 4200, s.c., read-out: ED50
[22] = Escherichia coli, 12140, po, E.coli 12140, p.o.

SMILES | MIC [2, 15] [µg/mL] | MIC [3, 16] [µg/mL] | MIC [4] [µg/mL] | MIC [5] [µg/mL] | MIC [7] [µg/mL] | MIC [8] [µg/mL] | MIC [9] [µg/mL] | MIC [10] [µg/mL] | MIC [11] [µg/mL] | ED50 [12, 17] [mg/kg] | ED50 [13, 18] [mg/kg] | MIC [1, 19] [µg/mL] | MIC [6, 20] [µg/mL] | ED50 [12, 21] [mg/kg] | ED50 [13, 22] [mg/kg] | MIC [14] [µg/mL] | further results
Cc1nnc(SCC2=C(C(=O)O)N3C(=O)C(NC(=O)C(N)c4ccc(OCC(=O)O)cc4)C3SC2)s1 (stereo not drawn) [*59216] | 1.6 to 12.5 (≈ 2.9 to 22.7 µM) | 100 to 200 (≈ 181 to 363 µM) | 50 to 200 (≈ 90.6 to 363 µM) | 12.5 to 50 (≈ 22.7 to 90.6 µM) | 6.3 to 25 (≈ 11.4 to 45.3 µM) | 3.1 to 12.5 (≈ 5.62 to 22.7 µM) | 6.3 to 25 (≈ 11.4 to 45.3 µM) | 100 to 200 (≈ 181 to 363 µM) | 1.6 to 6.3 (≈ 2.9 to 11.4 µM) | 29 | 6.2 |  |  |  |  |  | MIC [1]: 3.1 to 12.5 µg/mL (≈ 5.62 to 22.7 µM); MIC [6]: 3.1 to 12.5 µg/mL (≈ 5.62 to 22.7 µM)
Cc1nnc(SCC2=C(C(=O)O)N3C(=O)C(NC(=O)C(N)c4ccc(OCC(N)=O)cc4)C3SC2)s1 (stereo not drawn) [*71816] | 12.5 (≈ 22.7 µM) |  | 200 (≈ 363 µM) | 100 (≈ 182 µM) | 50 (≈ 90.8 µM) | 12.5 (≈ 22.7 µM) | 25 (≈ 45.4 µM) | 100 (≈ 182 µM) | 25 (≈ 45.4 µM) | 13.7 | 13.7 | 50 (≈ 90.8 µM) | 50 (≈ 90.8 µM) | 11.5 | 21.5 |  | MIC [3]: 12.5 µg/mL (≈ 22.7 µM)
COC(=O)COc1ccc([C@@H](N)C(=O)NC2C(=O)N3C(C(=O)O)=C(C)CSC23)cc1 (stereo partly drawn) [Compound No. 07826, 7-[D-α-Amino-α-(4'-carbomethoxymethoxyphenyl)acetamido]-3-desacetoxycephalosporanic acid] | 50 (≈ 115 µM) | 6.3 (≈ 14.5 µM) | 100 (≈ 230 µM) | > 200 | > 200 | 50 (≈ 115 µM) | 6.3 (≈ 14.5 µM) | 200 (≈ 459 µM) | 100 (≈ 230 µM) |  |  | 100 (≈ 230 µM) | 100 (≈ 230 µM) |  |  |  | 
COC(=O)COc1ccc([C@@H](N)C(=O)NC2C(=O)N3C(C(=O)O)=C(CSc4c[nH]nn4)CSC23)cc1 (stereo partly drawn) [Compound No. 19736, 7-[D-α-Amino-α-(4'-carbomethoxymethoxyphenyl)acetamido]-3-(1,2,3-triazol-4-ylthiomethyl)-3-cephem-4-carboxylic acid] | 25 (≈ 46.8 µM) | 12.5 (≈ 23.4 µM) | 100 (≈ 187 µM) | > 200 | 100 (≈ 187 µM) | 25 (≈ 46.8 µM) | 12.5 (≈ 23.4 µM) | 200 (≈ 374 µM) | 50 (≈ 93.5 µM) |  | 34 | 50 (≈ 93.5 µM) | 50 (≈ 93.5 µM) |  | 25 | > 200 | 
COC(=O)COc1ccc([C@@H](N)C(=O)NC2C(=O)N3C(C(=O)O)=C(CSc4nnnn4C)CSC23)cc1 (stereo partly drawn) [Compound No. 26436, 7-[D-α-Amino-α-(4'-carbomethoxymethoxyphenyl)acetamido]-3-(1-methyl-1,2,3,4-tetrazol-5-ylthiomethyl)-3-cephem-4-carboxylic acid] |  | 6.3 (≈ 11.5 µM) | 50 (≈ 91 µM) | 25 (≈ 45.5 µM) | 12.5 (≈ 22.7 µM) | 3.1 (≈ 5.64 µM) | 6.3 (≈ 11.5 µM) | 25 (≈ 45.5 µM) | 6.3 (≈ 11.5 µM) | 5.5 | 1.2 | 12.5 (≈ 22.7 µM) | 6.3 (≈ 11.5 µM) | 1.5 | 9.6 | 50 (≈ 91 µM) | MIC [2]: 6.5 µg/mL (≈ 11.8 µM)
Cn1nnnc1SCC1=C(C(=O)O)N2C(=O)C(NC(=O)[C@H](N)c3ccc(OCC(=O)O)cc3)C2SC1 (stereo partly drawn) [Compound No. 42526, 7-[D-α-Amino-α-(4'-carboxymethoxyphenyl)acetamido]-3-(1-methyl-1,2,3,4-tetrazol-5-ylthiomethyl)-3-cephem-4-carboxylic acid] | 6.3 (≈ 11.8 µM) | 25 (≈ 46.7 µM) | > 200 | 12.5 (≈ 23.3 µM) | 12.5 (≈ 23.3 µM) | 6.3 (≈ 11.8 µM) | 25 (≈ 46.7 µM) | 200 (≈ 373 µM) | 3.1 (≈ 5.79 µM) | 33 | 9.5 | 6.3 (≈ 11.8 µM) | 3.1 (≈ 5.79 µM) | 5.4 | > 50 | 100 (≈ 187 µM) | 
CC(=O)OCC1=C(C(=O)O)N2C(=O)C(NC(=O)[C@H](N)c3ccc(OCC(=O)O)cc3)C2SC1 (stereo partly drawn) [Compound No. 60326, 7-[D-α-Amino-α-(4'-carboxymethoxyphenyl)acetamido]-cephalosporanic acid] |  | 12.5 (≈ 26.1 µM) | 200 (≈ 417 µM) | 25 (≈ 52.1 µM) | 25 (≈ 52.1 µM) | 3.1 (≈ 6.47 µM) | 12.5 (≈ 26.1 µM) | 200 (≈ 417 µM) | 6.3 (≈ 13.1 µM) | 63 | 11.2 | 6.3 (≈ 13.1 µM) | 6.3 (≈ 13.1 µM) | 12.5 | 200 | > 200 | 
Cc1nnc(SCC2=C(C(=O)O)N3C(=O)C(NC(=O)[C@H](N)c4ccc(SCCC(=O)O)cc4)C3SC2)s1 (stereo partly drawn) [Compound No. 61726, 7-[D-α-Amino-α-(4'-carboxyethylthiophenyl)acetamido]-3-(5-methyl-1,3,4-thiadiazol-2-ylthiomethyl)-3-cephem-4-carboxylic acid] |  | 6.3 (≈ 10.8 µM) | 50 (≈ 86 µM) | 25 (≈ 43 µM) | 25 (≈ 43 µM) | 12.5 (≈ 21.5 µM) | 6.3 (≈ 10.8 µM) | 50 (≈ 86 µM) | 6.3 (≈ 10.8 µM) | > 50 |  |  | 6.3 (≈ 10.8 µM) | 50 |  | 200 (≈ 344 µM) | MIC [1]: 12.5 µg/mL (≈ 21.5 µM)
Cn1nnnc1SCC1=C(C(=O)O)N2C(=O)C(NC(=O)[C@H](N)c3ccc(NCC(=O)O)cc3)C2SC1 (stereo partly drawn) [Compound No. 76746, 7-[D-α-Amino-α-(4'-carboxymethylaminophenyl)acetamido]-3-(1-methyl-1,2,3,4-tetrazol-5-ylthiomethyl)-3-cephem-4-carboxylic acid] | 3.1 (≈ 5.8 µM) | 6.3 (≈ 11.8 µM) | 100 (≈ 187 µM) | 1.6 (≈ 2.99 µM) | 1.6 (≈ 2.99 µM) | 3.1 (≈ 5.8 µM) | 6.3 (≈ 11.8 µM) | 50 (≈ 93.5 µM) | 0.8 (≈ 1.5 µM) |  |  | 1.6 (≈ 2.99 µM) | 1.6 (≈ 2.99 µM) |  |  | 6.3 (≈ 11.8 µM) | 
NC(=O)COc1ccc([C@@H](N)C(=O)NC2C(=O)N3C(C(=O)O)=C(CSc4c[nH]nn4)CSC23)cc1 (stereo partly drawn) [Compound No. 91726, 7-[D-α-Amino-α -(4'-carbamylmethoxyphenyl)acetamido]-3-(1,2,3-triazol-4-ylthiomethyl)-3-cephem-4-carboxylic acid] | 6.3 (≈ 12.1 µM) | 6.3 (≈ 12.1 µM) | 200 (≈ 385 µM) | 50 (≈ 96.2 µM) | 25 (≈ 48.1 µM) | 6.3 (≈ 12.1 µM) | 6.3 (≈ 12.1 µM) | 50 (≈ 96.2 µM) | 12.5 (≈ 24.1 µM) | 13.6 | 14 | 50 (≈ 96.2 µM) | 12.5 (≈ 24.1 µM) | 12.5 | 25 |  | 
COC(=O)CNc1ccc([C@@H](N)C(=O)NC2C(=O)N3C(C(=O)O)=C(CSc4nnc(C)s4)CSC23)cc1 (stereo partly drawn) [Compound No. 96146, 7-[D-α-Amino-α-(4'-carbomethoxymethylaminophenyl)-acetamido]-3-(5-methyl-1,3,4-thiadiazol-2-ylthiomethyl)-3-cephem-4-carboxylic acid] | 25 (≈ 44.3 µM) | 6.3 (≈ 11.2 µM) | 25 (≈ 44.3 µM) | 100 (≈ 177 µM) | 100 (≈ 177 µM) | 25 (≈ 44.3 µM) | 6.3 (≈ 11.2 µM) | 50 (≈ 88.5 µM) | 50 (≈ 88.5 µM) | 17 | 4.7 | 50 (≈ 88.5 µM) | 50 (≈ 88.5 µM) | 2.9 | 16 | > 200 | 
COC(=O)COc1ccc([C@@H](N)C(=O)NC2C(=O)N3C(C(=O)O)=C(CSc4nnc(C)s4)CSC23)cc1 (stereo partly drawn) [Compound No. 96826, 7-[D-α-Amino-α-(4'-carbomethoxymethoxyphenyl)acetamido]-3-(5-methyl-1,3,4-thiadiazol-2-ylthiomethyl)-3-cephem-4-carboxylic acid] | 12.5 (≈ 22.1 µM) | 3.1 (≈ 5.48 µM) | 25 (≈ 44.2 µM) | 50 (≈ 88.4 µM) | 50 (≈ 88.4 µM) |  | 3.1 (≈ 5.48 µM) | 25 (≈ 44.2 µM) | 25 (≈ 44.2 µM) |  | < 3 | 25 (≈ 44.2 µM) | 25 (≈ 44.2 µM) | 7.2 | 9.4 | 25 (≈ 44.2 µM) | ED50 ([12]; po): 12.5 mg/kg
